Results from ChEMBL document CHEMBL1201862, “PubChem BioAssay data set” (2004).
Activity calls are given as the source filed them.

Legend:
[1] = inhibitors of SNCA 5'UTR-driven reporter translation, confirmation, H4 neuroglioma cells, luminescence (AID 1988); assay type: functional, cell-based
[2] = inhibitors of intracellular T. cruzi replication, confirmation, NIH3T3 host cells, beta-gal luminescence (AID 2044); assay type: functional, cell-based;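 note: intracellular parasites grown in NIH/3T3 mouse fibroblasts as host cells; luminescent beta-galactosidase reporter signal from transgenic T. cruzi replicating inside host cells; inhibitors lower the luminescence signal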
[3] = inhibitors of firefly luciferase expression or activity, dose response, H4 neuroglioma cells, luminescence (AID 1990); assay type: functional, cell-based
[4] = cytotoxicity toward NIH3T3 fibroblasts, dose response, counter-screen, cell-based, ATP luminescence, mouse fibroblasts (AID 2010); assay type: functional;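 note: cells exposed to compound for about 90 hours before reading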
[5] = biological target: T1, Rac GTPase-activating protein 1 (Homo sapiens, UniProt Q9H0H5); test: MgcRacGAP GTPase-activating activity inhibitors, confirmation, biochemical, ADP Hunter fluorescence, primary and confirmatory (AID 624330); assay type: functional
T1 sequence (Q9H0H5 whole entry): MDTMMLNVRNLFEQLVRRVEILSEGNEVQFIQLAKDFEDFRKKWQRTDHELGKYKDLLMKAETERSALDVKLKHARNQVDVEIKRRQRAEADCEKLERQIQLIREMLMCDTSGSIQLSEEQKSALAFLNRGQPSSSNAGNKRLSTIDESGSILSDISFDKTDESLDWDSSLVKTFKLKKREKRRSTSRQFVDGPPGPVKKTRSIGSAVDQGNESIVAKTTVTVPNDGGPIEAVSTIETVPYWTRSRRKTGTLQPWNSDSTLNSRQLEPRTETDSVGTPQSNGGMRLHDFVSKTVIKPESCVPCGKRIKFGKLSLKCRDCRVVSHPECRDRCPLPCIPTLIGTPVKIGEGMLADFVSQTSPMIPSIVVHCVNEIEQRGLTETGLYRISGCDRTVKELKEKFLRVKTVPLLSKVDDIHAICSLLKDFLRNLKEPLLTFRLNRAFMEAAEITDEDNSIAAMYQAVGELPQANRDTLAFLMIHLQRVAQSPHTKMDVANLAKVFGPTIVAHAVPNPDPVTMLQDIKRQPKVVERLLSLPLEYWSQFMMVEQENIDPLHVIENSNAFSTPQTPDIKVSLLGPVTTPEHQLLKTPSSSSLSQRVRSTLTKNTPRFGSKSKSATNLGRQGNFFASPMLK

[6] = biological target: T2, Polyadenylate-binding protein 1 (Homo sapiens, UniProt P11940); test: PABP1 MLLE–PAM2 binding inhibitor potency, dose response, biochemical, fluorescence polarization, FITC-PAM2 peptide (AID 602259); assay type: functional; conditions: read-out: IC50_Mean
T2 sequence (P11940 whole entry): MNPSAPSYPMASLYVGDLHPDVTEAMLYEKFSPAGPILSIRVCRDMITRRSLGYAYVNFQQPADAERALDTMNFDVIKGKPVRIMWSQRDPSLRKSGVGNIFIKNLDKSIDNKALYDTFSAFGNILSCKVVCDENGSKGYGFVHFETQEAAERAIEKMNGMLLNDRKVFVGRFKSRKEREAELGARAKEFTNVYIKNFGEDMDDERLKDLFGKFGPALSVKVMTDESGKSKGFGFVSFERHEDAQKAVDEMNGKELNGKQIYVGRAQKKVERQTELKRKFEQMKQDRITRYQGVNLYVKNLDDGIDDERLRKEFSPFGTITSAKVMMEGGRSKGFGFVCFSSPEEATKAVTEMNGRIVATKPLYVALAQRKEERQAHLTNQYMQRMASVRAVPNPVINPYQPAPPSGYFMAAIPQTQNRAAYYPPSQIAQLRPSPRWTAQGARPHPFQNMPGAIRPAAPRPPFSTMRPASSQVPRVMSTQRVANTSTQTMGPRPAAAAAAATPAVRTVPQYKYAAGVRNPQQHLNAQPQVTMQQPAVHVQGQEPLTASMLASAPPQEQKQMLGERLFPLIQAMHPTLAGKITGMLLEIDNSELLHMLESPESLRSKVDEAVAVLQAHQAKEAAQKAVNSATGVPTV

[7] = biological target: T2, Polyadenylate-binding protein 1; test: PABP1 MLLE–PAM2 interaction inhibitors, dose response, miRNA deadenylation inhibitor project, biochemical, fluorescence polarization, Cy5-PAM2 peptide, secondary (AID 602260); assay type: functional; conditions: read-out: IC50_Mean
[8] = biological target: T3, Heat shock factor protein 1 (Mus musculus, UniProt P38532); test: inhibition of MG132-induced HSE-luciferase signal, confirmation, cell-based, NIH3T3, luminescence, dose retest (AID 2382); assay type: functional;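 note: NIH3T3 fibroblasts with HSF1-driven luciferase reporter stressed by proteasome inhibitor MG132; luminescence from HSF1-driven luciferase expression after 8 hours of MG132 stress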
T3 sequence (P38532 whole entry): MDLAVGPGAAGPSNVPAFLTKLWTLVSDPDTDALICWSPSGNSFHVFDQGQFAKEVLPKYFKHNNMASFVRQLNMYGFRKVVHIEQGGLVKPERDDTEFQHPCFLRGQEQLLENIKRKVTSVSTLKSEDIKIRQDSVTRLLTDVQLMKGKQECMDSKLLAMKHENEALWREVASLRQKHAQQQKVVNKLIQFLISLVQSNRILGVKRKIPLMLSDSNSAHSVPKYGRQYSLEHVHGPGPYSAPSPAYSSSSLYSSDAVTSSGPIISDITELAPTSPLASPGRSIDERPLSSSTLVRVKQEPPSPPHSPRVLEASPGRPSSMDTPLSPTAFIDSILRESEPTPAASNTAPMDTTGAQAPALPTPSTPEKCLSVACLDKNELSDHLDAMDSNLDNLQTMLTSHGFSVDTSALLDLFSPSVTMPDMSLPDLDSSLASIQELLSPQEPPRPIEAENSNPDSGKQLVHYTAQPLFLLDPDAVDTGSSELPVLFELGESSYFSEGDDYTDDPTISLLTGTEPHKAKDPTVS

[9] = biological target: Cytochrome P450 3A4 (Homo sapiens, UniProt P08684);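 note: CYP3A4 tested as one member of a cytochrome P450 panel screen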
Chain of Cytochrome P450 3A4 (P08684 whole entry): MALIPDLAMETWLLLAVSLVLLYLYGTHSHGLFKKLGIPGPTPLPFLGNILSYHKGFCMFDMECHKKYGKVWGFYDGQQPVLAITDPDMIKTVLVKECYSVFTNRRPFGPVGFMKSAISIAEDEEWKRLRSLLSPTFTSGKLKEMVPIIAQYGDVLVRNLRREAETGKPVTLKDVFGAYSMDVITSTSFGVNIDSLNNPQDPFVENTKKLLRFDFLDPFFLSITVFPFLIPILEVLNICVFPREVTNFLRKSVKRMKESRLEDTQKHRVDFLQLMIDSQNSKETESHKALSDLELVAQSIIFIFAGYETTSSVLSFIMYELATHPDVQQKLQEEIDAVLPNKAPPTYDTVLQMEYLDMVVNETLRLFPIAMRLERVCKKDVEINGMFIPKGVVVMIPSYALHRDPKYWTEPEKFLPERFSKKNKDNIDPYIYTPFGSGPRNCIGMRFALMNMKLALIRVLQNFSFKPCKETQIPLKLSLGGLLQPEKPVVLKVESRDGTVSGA

[10] = biological target: Cytochrome P450 2D6 (Homo sapiens, UniProt P10635);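 note: CYP2D6 member of a cytochrome P450 panel assay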
Chain of Cytochrome P450 2D6 (P10635 whole entry): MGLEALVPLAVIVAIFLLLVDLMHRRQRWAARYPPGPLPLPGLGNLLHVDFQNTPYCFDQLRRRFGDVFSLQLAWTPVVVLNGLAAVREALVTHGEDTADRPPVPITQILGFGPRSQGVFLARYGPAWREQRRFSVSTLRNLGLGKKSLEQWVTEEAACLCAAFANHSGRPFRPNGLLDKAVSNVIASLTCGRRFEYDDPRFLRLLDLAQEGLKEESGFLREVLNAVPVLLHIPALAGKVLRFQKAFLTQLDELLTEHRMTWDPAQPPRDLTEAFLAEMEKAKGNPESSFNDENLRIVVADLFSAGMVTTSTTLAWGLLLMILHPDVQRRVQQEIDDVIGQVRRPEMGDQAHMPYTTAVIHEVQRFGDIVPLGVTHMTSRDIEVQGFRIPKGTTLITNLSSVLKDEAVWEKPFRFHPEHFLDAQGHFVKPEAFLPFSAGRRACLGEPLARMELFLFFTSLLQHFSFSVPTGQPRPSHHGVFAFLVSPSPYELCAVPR

[11] = Luminescence Cell-Based Dose Retest to Confirm Inhibitors of Cancer Stem Cells. [Related pubchem assays (depositor defined):AID2717, AID2721]; assay type: functional; conditions: Homo sapiens
[12] = biological target: Cytochrome P450 2C19 (Homo sapiens, UniProt P33261); test: Cytochrome panel assay with activity outcomes. Panel member name: p450-cyp2c19 Compounds with AC50 equal or less than 10 uM are considered active; assay type: functional; conditions: read-out: AC50
Chain of Cytochrome P450 2C19 (P33261 whole entry): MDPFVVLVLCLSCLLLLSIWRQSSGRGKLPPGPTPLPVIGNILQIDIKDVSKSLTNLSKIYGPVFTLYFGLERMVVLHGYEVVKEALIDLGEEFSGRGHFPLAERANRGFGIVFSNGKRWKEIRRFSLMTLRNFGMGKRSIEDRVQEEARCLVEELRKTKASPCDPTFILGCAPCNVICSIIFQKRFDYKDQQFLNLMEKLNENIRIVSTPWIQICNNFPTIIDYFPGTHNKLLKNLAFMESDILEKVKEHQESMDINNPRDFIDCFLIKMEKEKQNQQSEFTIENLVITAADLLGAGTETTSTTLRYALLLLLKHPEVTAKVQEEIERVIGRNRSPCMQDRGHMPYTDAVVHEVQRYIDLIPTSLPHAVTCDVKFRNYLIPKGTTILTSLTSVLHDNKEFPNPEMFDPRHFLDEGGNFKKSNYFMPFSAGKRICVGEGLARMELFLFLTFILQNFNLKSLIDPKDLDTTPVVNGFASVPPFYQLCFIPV

[13] = biological target: Cytochrome P450 2C9 (Homo sapiens, UniProt P11712)
Chain of Cytochrome P450 2C9 (P11712 whole entry): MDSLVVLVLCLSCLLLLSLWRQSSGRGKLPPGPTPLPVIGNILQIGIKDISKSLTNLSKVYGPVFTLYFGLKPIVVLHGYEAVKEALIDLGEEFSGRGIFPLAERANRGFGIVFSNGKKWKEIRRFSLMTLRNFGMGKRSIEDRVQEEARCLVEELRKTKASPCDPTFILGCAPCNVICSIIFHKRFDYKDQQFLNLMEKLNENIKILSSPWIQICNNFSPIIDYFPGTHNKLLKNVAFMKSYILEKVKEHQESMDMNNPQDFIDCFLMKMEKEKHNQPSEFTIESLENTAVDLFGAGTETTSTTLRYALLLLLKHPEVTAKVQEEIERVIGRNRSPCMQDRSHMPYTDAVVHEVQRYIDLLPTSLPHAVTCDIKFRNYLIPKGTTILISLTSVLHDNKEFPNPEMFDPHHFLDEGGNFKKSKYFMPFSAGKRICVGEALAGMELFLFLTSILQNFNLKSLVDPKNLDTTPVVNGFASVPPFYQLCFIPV

[14] = tested on: Streptococcus sp. 'group A'; test: growth inhibition of control SK(-) GAS strain, dose response, counter-screen for streptokinase expression inhibitor project, luminescence, kanamycin, BacTiterGlo, confirmation (AID 1900); assay type: functional, organism-based
[15] = biological target: T4, Streptokinase A (Streptococcus pyogenes serotype M1, UniProt P10520); test: S. pyogenes streptokinase expression inhibitors, potency, dose response, plasminogen activation absorbance, OD405 (AID 1914); assay type: functional, Streptococcus pyogenes M1 GAS;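 note: secreted streptokinase activity via plasminogen activation per viability signal from cell pellet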
T4 sequence (P10520 whole entry): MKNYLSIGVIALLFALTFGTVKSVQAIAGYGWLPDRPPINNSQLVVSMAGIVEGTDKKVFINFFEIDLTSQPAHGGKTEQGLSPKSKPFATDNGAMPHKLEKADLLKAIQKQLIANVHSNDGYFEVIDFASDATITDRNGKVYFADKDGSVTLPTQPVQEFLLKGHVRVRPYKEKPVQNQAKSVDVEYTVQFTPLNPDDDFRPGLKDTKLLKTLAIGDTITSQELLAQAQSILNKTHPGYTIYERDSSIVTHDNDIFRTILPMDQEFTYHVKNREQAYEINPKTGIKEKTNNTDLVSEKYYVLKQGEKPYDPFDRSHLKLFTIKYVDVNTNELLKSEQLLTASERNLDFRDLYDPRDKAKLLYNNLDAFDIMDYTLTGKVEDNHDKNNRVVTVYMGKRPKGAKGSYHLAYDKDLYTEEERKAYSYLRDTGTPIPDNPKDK

[16] = tested on: Streptococcus; test: Group A Streptococcus viability loss, dose response, counter-screen for streptokinase expression inhibitor project, luminescence, BacTiterGlo (AID 1915); assay type: functional, organism-based;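 note: potency for reduction of bacterial viability or growth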

## COc1cccc2sc(Nc3nc(-c4ccncc4)cs3)nc12
[1]
  EC50: 0.601 µM (active)
[2]
  EC50: 2.41 µM (active)
[3]
  EC50: 3.2 µM (active)
[4]
  EC50: 3.65 µM (active)

## O=C(CN1CCCCCC1)NN(Cc1ccccc1)c1ccccc1
[5]
  IC50: 301 µM (active)

## CCN1C(=O)/C(=C/c2ccc(OC)c(OC)c2)N=C1SCC(=O)NCc1ccco1
[6]
  IC50: > 66 µM (inactive)
[7]
  IC50: > 66 µM (inactive)

## CCOP(=O)(OCC)c1cccc(OP(=O)(c2cccc([N+](=O)[O-])c2)c2cccc([N+](=O)[O-])c2)c1
[8]
  EC50: > 195 µM (not active)

## O=C(CN1CCN(C/C=C/c2ccccc2)CC1)Nc1ccccc1C(=O)NC1CC1
[5]
  IC50: 90.5 µM (active)

## C1CC2CN(c3nc4nonc4nc3N3CCSCC3)CCN2C1 (stereo not given)
[6]
  IC50: > 66 µM (inactive)
[7]
  IC50: > 66 µM (inactive)

## CS(=O)(=O)N(Cc1ccccc1)c1ccc(C(=O)NCCSCc2ccco2)cc1
[6]
  IC50: > 66 µM (inactive)
[7]
  IC50: > 66 µM (inactive)

## Cc1ccc(/C=C/C(=O)Nc2nn[nH]n2)o1
[6]
  IC50: > 66 µM (inactive)
[7]
  IC50: > 66 µM (inactive)

## COc1ccc(C(=O)N2CCN=C2SCc2cccnc2)cc1OC
[8]
  EC50: > 195 µM (not active)

## CC(=O)N1CCC[C@@]2(CCN(Cc3ccccc3)C2)C1
[9]
  AC50: 39.8 µM (inconclusive)
[10]
  AC50: 15.8 µM (inconclusive)

## c1ccc2nc(C3=NCCN3)ccc2c1
[10]
  AC50: 20 µM (inconclusive)

## O=C(Nc1ccc(OC(F)F)c(Cl)c1)Nc1ccc2c(c1)OCO2
[11]
  AC50: 2.04 µM (active)

## COc1ccc(-c2cc(C(=O)Nc3ccc(O)cc3)c3ccccc3n2)cc1OC
[5]
  IC50: 159 µM (active)

## CCCN1CCc2c(sc(NC(=O)c3ccc(S(=O)(=O)N(C)c4ccccc4)cc3)c2C(=O)NC)C1
[11]
  AC50: 3.26 µM (active)

## CCN(c1ccccc1)S(=O)(=O)c1c[nH]cn1
[8]
  EC50: > 195 µM (not active)

## CS(=O)(=O)N1CCN(c2ccccc2NC(=O)c2ccc(Br)o2)CC1
[12]
  AC50: 39.8 µM (inconclusive)
[10]
  AC50: 22.4 µM (inconclusive)

## CCOC(=O)N1CCN(S(=O)(=O)c2ccc3c(c2)OCC(=O)N3)CC1
[8]
  EC50: > 195 µM (not active)

## CCN(CCS(=O)(=O)c1ccc(Cl)cc1)C(=O)Nc1ccccc1
[8]
  EC50: > 195 µM (not active)

## C/C(CCN1CCCc2nc(C)c(C)cc21)=N\O[C@@H](C)c1cn([C@H](CO)Cc2ccccc2)nn1
[10]
  AC50: 3.98 µM (inconclusive)

## Cc1csc(=O)n1CCC(=O)OCC(=O)NNC(=O)c1ccc(Cl)cc1
[6]
  IC50: > 66 µM (inactive)
[7]
  IC50: > 66 µM (inactive)

## Cc1cc(C)cc(NC(=O)Nc2ccc(-n3ccc(C(F)(F)F)n3)cc2)c1
[11]
  AC50: 1.61 µM (active)

## NN=C(S)NC1CC2CC1C1C=CCC21 (stereo not given)
[8]
  EC50: > 195 µM (not active)

## CC(C)NC(=O)N1CCCC2(CCN(C(=O)c3csnn3)CC2)C1
[9]
  AC50: 25.1 µM (inconclusive)
[10]
  AC50: 12.6 µM (inconclusive)

## O=C(CN1CCc2ccccc21)NC(=O)NCc1ccco1
[9]
  AC50: 28.2 µM (inconclusive)
[10]
  AC50: 14.1 µM (inconclusive)

## Cc1nc2cc(C(=O)O)ccc2s1
[6]
  IC50: > 66 µM (inactive)
[7]
  IC50: > 66 µM (inactive)

## Nc1ccc2c(c1)Oc1ccccc1C=C2
[11]
  AC50: > 195 µM (inactive)

## O=c1c(-c2cccs2)nc2cnc(N3CCNCC3)nc2n1CCc1ccccc1
[10]
  AC50: 25.1 µM (inconclusive)

## Cc1ccc(Cl)cc1NC(=O)C1COc2ccccc2O1 (stereo not given)
[8]
  EC50: > 195 µM (not active)

## Cc1ccc(C(c2sc3ncnn3c2O)N2CC(C)CC(C)C2)cc1 (stereo not given)
[8]
  EC50: > 195 µM (not active)

## FC(F)(F)c1ccccc1-c1nc(NCc2cccs2)c2ccccc2n1
[10]
  AC50: 25.1 µM (inconclusive)

## CCOC(=O)CSC1=N/C(=C\c2cc(OC)c(OC)c(OC)c2)C(=O)N1C
[6]
  IC50: > 66 µM (inactive)
[7]
  IC50: > 66 µM (inactive)

## c1ccc(Cc2nn3c(-c4ccncc4)nnc3s2)cc1
[6]
  IC50: > 66 µM (inactive)
[7]
  IC50: > 66 µM (inactive)

## CCOC(=O)C(CC)Sc1nc2c(c(=O)[nH]c(=O)n2C)n1CCc1ccccc1 (stereo not given)
[6]
  IC50: > 66 µM (inactive)
[7]
  IC50: > 66 µM (inactive)

## O=C(c1cc2c(s1)-c1ccccc1OC2)N1CCN(c2ccccc2)CC1
[8]
  EC50: > 195 µM (not active)

## Cc1cc(C(=O)NC2CCCN(Cc3ccc(Cl)cc3)C2)n(C)n1 (stereo not given)
[8]
  EC50: > 195 µM (not active)

## NC(=O)CC(NC(=O)Cc1ccc(Br)cc1)c1ccc(NCc2cc(F)ccc2F)c([N+](=O)[O-])c1 (stereo not given)
[11]
  AC50: 2.52 µM (active)

## COCC(=O)N1CCC2(CCCN(c3ncccn3)C2)CC1
[10]
  AC50: 20 µM (inconclusive)

## O=C(/C=C/c1ccco1)NC(=S)Nc1ccc(N2CCCC2)cc1
[6]
  IC50: > 66 µM (inactive)
[7]
  IC50: > 66 µM (inactive)

## CCOc1cc(NC(=O)c2ccccn2)c(OCC)cc1NC(=O)c1ccccc1
[11]
  AC50: 24.4 µM (active)

## CCCSc1nnc(CNS(=O)(=O)c2ccc(C)cc2)n1C
[8]
  EC50: > 195 µM (not active)

## CCOc1ccc(-n2c(SCC(=O)Nc3ccc(OC)cc3)nc3c(c2=O)SCC3)cc1
[13]
  AC50: 3.55 µM (inconclusive)
[9]
  AC50: 7.94 µM (inconclusive)
[10]
  AC50: 15.8 µM (inconclusive)

## Nc1ccc(N=Nc2ccccc2)c2ccccc12
[11]
  AC50: 6.49 µM (active)
[14]
  EC50: 8.03 µM (active)
[15]
  EC50: > 150 µM (not active)
[16]
  EC50: 9.13 µM (active)

## CCN1C(=O)/C(=C2\SC(=S)N(c3c(C)n(C)n(-c4ccccc4)c3=O)C2=O)c2ccccc21
[6]
  IC50: > 66 µM (inactive)
[7]
  IC50: > 66 µM (inactive)

## O=C(NCCN1CCN(Cc2ccccc2)CC1)C1c2ccccc2C(=O)N2CCc3ccccc3C12 (stereo not given)
[12]
  AC50: 39.8 µM (inconclusive)
[10]
  AC50: 11.2 µM (inconclusive)

## COc1cc2sc(-c3ccccc3OC)c(-c3ccc(O)cc3)c2cc1OC
[11]
  AC50: 2.32 µM (active)

## C=C(C)c1cccc(C(C)(C)NC(=O)Nc2cc(C)ccc2OC)c1
[10]
  AC50: 12.6 µM (inconclusive)

## Cc1ccc(S(=O)(=O)Nc2cc(C)c(O)c(Sc3nnc(C)[nH]3)c2)cc1
[6]
  IC50: > 66 µM (inactive)
[7]
  IC50: > 66 µM (inactive)

## CC1=C(C(=O)OCc2ccccc2)C(c2ccc([N+](=O)[O-])cc2)NC(=O)N1CCCCCC(=O)O (stereo not given)
[9]
  AC50: 10 µM (inconclusive)
[10]
  AC50: 20 µM (inconclusive)

## CCN(CC)c1ccc(/C=N/NC(=O)c2cc3ccccc3[nH]2)cc1
[5]
  IC50: 146 µM (active)
